Key:
[1] = target: T1, human mAChR M1 (Homo sapiens, UniProt P11229); assay: mAChR M1 cell-based functional assay (calcium mobilization), PAM mode: increase in the EC20 acetylcholine response
T1 sequence (P11229 1-460): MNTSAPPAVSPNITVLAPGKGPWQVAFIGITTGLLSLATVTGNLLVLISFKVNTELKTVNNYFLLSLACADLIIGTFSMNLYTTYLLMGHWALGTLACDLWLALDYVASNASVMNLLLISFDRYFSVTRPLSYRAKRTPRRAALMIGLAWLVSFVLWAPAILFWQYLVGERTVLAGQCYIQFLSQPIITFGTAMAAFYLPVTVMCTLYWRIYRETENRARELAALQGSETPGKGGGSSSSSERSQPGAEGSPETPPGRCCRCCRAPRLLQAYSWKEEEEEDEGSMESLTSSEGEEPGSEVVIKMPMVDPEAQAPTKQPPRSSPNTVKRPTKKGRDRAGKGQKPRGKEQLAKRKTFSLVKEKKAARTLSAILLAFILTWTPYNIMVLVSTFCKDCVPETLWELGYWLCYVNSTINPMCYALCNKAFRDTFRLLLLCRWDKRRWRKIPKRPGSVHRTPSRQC
In short: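 CHO-K1 cells stably expressing hM1, Fluo-4 loaded, read by FDSS calcium flux at 1 Hz. Compound (11-point 1:3 CRC) added at 4 s, EC20 acetylcholine at 144 s, EC80 at 230 s. PAM activity taken as concentration-dependent increase in EC20 ACh response, fitted by four-parameter logistic for EC50/Emax.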

[2] = target: T1, human mAChR M1; assay: mAChR M1 cell-based functional assay (calcium mobilization), agonist mode: compound alone, Emax relative to acetylcholine maximum; conditions: for Agonist Activity Human M1 EC50 / EC50: human mAChR M1; for Emax: relative to the maximum for acetylcholine
In short: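 CHO-K1 cells stably expressing hM1 were loaded with Fluo-4 AM, and calcium flux was read as fluorescence ratio. Compound was added alone from an 11-point 1:3 curve, and the agonist response was fitted with a four-parameter logistic. Emax is expressed relative to the acetylcholine maximum.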

SMILES | EC50 [1] [nM] | Emax [1] [%] | Agonist Activity Human M1 EC50 [2] | Emax [2] [%] | EC50 [2] [nM]
[2H]C1([2H])c2ncccc2C(=O)N1Cc1c(F)cc(-c2cccn3nc(C)cc23)cc1F [Compound 235, 6-(2,6-Difluoro-4-(2-methylpyrazolo[1,5-a]pyridin-4-yl)benzyl)-6,7-dihydro-5H-pyrrolo[3,4-b]pyridin-5-one-7,7-d2] | 744 | 73 | – | 23 | > 10000
[2H]C1([2H])c2ncccc2C(=O)N1Cc1ccc(-c2ccc(OC(C)COC)c3nn(C)cc23)cc1F (stereo not shown) [Compound 143, 6-(2-fluoro-4-(7-((1-methoxypropan-2-yl)oxy)-2-methyl-2H-indazol-4-yl)benzyl)-6,7-dihydro-5H-pyrrolo[3,4-b]pyridin-5-one-7,7-d2] | 1270 | 74 | – | 15 | ≥ 10000
[2H]C1([2H])c2ncccc2C(=O)N1Cc1c(F)cc(-c2cncc3nn(C)cc23)cc1F [Compound 119, 6-(2,6-difluoro-4-(2-methyl-2H-pyrazolo[3,4-c]pyridin-4-yl)benzyl)-6,7-dihydro-5H-pyrrolo[3,4-b]pyridin-5-one-7,7-d2] | ≥ 10000 | 63 | Inactive | 3 | –
[2H]C1([2H])c2ncccc2C(=O)N1Cc1c(F)cc(-c2ccnc3nn(C)cc23)cc1OCC(C)C [Compound 217, 6-(2-fluoro-6-isobutoxy-4-(2-methyl-2H-pyrazolo[3,4-b]pyridin-4-yl)benzyl)-6,7-dihydro-5H-pyrrolo[3,4-b]pyridin-5-one-7,7-d2] | 207 | 78 | – | 23 | 2860
[2H]C1([2H])c2ncccc2C(=O)N1Cc1c(F)cc(-c2ccc(C(F)(F)F)c3nn(C)cc23)cc1OCC(C)C [Compound 216, 6-(2-fluoro-6-isobutoxy-4-(2-methyl-7-(trifluoromethyl)-2H-indazol-4-yl)benzyl)-6,7-dihydro-5H-pyrrolo[3,4-b]pyridin-5-one-7,7-d2] | 3180 | 83 | Inactive | 2 | –
[2H]C1([2H])c2ncccc2C(=O)N1Cc1ccc(-c2cccc3nn(C)cc23)cc1 [Compound 11, 6-(4-(2-methyl-2H-indazol-4-yl)benzyl)-6,7-dihydro-5H-pyrrolo[3,4-b]pyridin-5-one-7,7-d2] | 1300 | 77 | Inactive | 6 | –
[2H]C1([2H])c2ncccc2C(=O)N1Cc1c(F)cc(-c2ccc(C(F)(F)F)c3nn(C)cc23)cc1C1CC1 [Compound 207, 6-(2-cyclopropyl-6-fluoro-4-(2-methyl-7-(trifluoromethyl)-2H-indazol-4-yl)benzyl)-6,7-dihydro-5H-pyrrolo[3,4-b]pyridin-5-one-7,7-d2] | 673 | 84 | – | 25 | 8070
[2H]C1([2H])c2ncccc2C(=O)N1Cc1ccc(-c2cc(C)c3nn(C)cc3c2)cc1F [Compound 25, 6-(4-(2,7-dimethyl-2H-indazol-5-yl)-2-fluorobenzyl)-6,7-dihydro-5H-pyrrolo[3,4-b]pyridin-5-one-7,7-d2] | 1070 | 76 | Inactive | 4 | –
[2H]C1([2H])c2ncccc2C(=O)N1Cc1ccc(-c2cc(F)cc3nn(C)cc23)cc1F [Compound 71, 6-(2-fluoro-4-(6-fluoro-2-methyl-2H-indazol-4-yl)benzyl)-6,7-dihydro-5H-pyrrolo[3,4-b]pyridin-5-one-7,7-d2] | 698 | 75 | Inactive | 1 | –

The remaining lines, values ahead:

EC50 [1] [nM] | Emax [1] [%] | Agonist Activity Human M1 EC50 [2] | Emax [2] [%] | EC50 [2] [nM] | SMILES
353 | 81 | Inactive | 6 | – | [2H]C1([2H])c2ncccc2C(=O)N1Cc1c(F)cc(-c2cccc3nn(C([2H])([2H])[2H])cc23)cc1Cl [Compound 161, 6-(2-chloro-6-fluoro-4-(2-(methyl-d3)-2H-indazol-4-yl)benzyl)-6,7-dihydro-5H-pyrrolo[3,4-b]pyridin-5-one-7,7-d2]
131 | 76 | – | 21 | 3300 | [2H]C([2H])([2H])Oc1ccc(-c2cc(F)c(CN3C(=O)c4cccnc4C3([2H])[2H])c(F)c2)c2cn(C)nc12 [Compound 93, 6-(2,6-difluoro-4-(7-(methoxy-d3)-2-methyl-2H-indazol-4-yl)benzyl)-6,7-dihydro-5H-pyrrolo[3,4-b]pyridin-5-one-7,7-d2]
347 | 79 | – | 30 | 5600 | [2H]C1([2H])c2ncccc2C(=O)N1Cc1c(C)cc(-c2ccc(F)c3nn(C)cc23)cc1F [Compound 198, 6-(2-fluoro-4-(7-fluoro-2-methyl-2H-indazol-4-yl)-6-methylbenzyl)-6,7-dihydro-5H-pyrrolo[3,4-b]pyridin-5-one-7,7-d2]
293 | 70 | – | 49 | 7450 | [2H]C1([2H])c2ncccc2C(=O)N1Cc1c(F)cc(-c2ccc(C)c3nn(C)cc23)cc1C1CC1 [Compound 204, 6-(2-cyclopropyl-4-(2,7-dimethyl-2H-indazol-4-yl)-6-fluorobenzyl)-6,7-dihydro-5H-pyrrolo[3,4-b]pyridin-5-one-7,7-d2]
476 | 82 | Inactive | 3 | – | [2H]C1([2H])c2ncccc2C(=O)N1Cc1c(F)cc(-c2ccc(F)c3nn(C)cc23)cc1Cl [Compound 164, 6-(2-chloro-6-fluoro-4-(7-fluoro-2-methyl-2H-indazol-4-yl)benzyl)-6,7-dihydro-5H-pyrrolo[3,4-b]pyridin-5-one-7,7-d2]
317 | 85 | Inactive | 2 | – | [2H]C1([2H])c2ncccc2C(=O)N1Cc1c(F)cc(-c2ccc(C)c3nn(C([2H])([2H])[2H])cc23)cc1F [Compound 52, 6-(2,6-difluoro-4-(7-methyl-2-(methyl-d3)-2H-indazol-4-yl)benzyl)-6,7-dihydro-5H-pyrrolo[3,4-b]pyridin-5-one-7,7-d2]
472 | 75 | Inactive | 4 | – | [2H]C1([2H])c2ncccc2C(=O)N1Cc1ccc(-c2cc(F)cc3nn(C)cc23)cc1 [Compound 72, 6-(4-(6-fluoro-2-methyl-2H-indazol-4-yl)benzyl)-6,7-dihydro-5H-pyrrolo[3,4-b]pyridin-5-one-7,7-d2]
140 | 30 | Inactive | 2 | – | [2H]C1([2H])c2ncccc2C(=O)N1Cc1c(F)cc(-c2cc(F)c(F)c3nn(C([2H])([2H])[2H])cc23)cc1F [Compound 106, 6-(4-(6,7-difluoro-2-(methyl-d3)-2H-indazol-4-yl)-2,6-difluorobenzyl)-6,7-dihydro-5H-pyrrolo[3,4-b]pyridin-5-one-7,7-d2]
162 | 77 | – | 43 | 8010 | [2H]C1([2H])c2ncccc2C(=O)N1Cc1c(F)cc(-c2ccc(OCCOC)c3nn(C([2H])([2H])[2H])cc23)cc1F [Compound 114, 6-(2,6-difluoro-4-(7-(2-methoxyethoxy)-2-(methyl-d3)-2H-indazol-4-yl)benzyl)-6,7-dihydro-5H-pyrrolo[3,4-b]pyridin-5-one-7,7-d2]
354 | 82 | – | 27 | ≥ 10000 | [2H]C1([2H])c2ncccc2C(=O)N1Cc1c(F)cc(-c2ccc(OC[C@@H](C)OC)c3nn(C)cc23)cc1F [Compound 172, (R)-6-(2,6-difluoro-4-(7-(2-methoxypropoxy)-2-methyl-2H-indazol-4-yl)benzyl)-6,7-dihydro-5H-pyrrolo[3,4-b]pyridin-5-one-7,7-d2]
381 | 80 | Inactive | 5 | – | [2H]C1([2H])c2ncccc2C(=O)N1Cc1c(F)cc(-c2ccc(OCCN(C)C)c3nn(C)cc23)cc1F [Compound 131, 6-(4-(7-(2-(dimethylamino)ethoxy)-2-methyl-2H-indazol-4-yl)-2,6-difluorobenzyl)-6,7-dihydro-5H-pyrrolo[3,4-b]pyridin-5-one-7,7-d2]
194 | 85 | – | 33 | 8160 | [2H]C1([2H])c2ncccc2C(=O)N1Cc1c(C)cc(-c2cccc3nn(C([2H])([2H])[2H])cc23)cc1F (single isomer, unassigned) [Compound 156, 6-(2-Fluoro-6-methyl-4-(2-(methyl-d3)-2H-indazol-4-yl)benzyl)-6,7-dihydro-5H-pyrrolo[3,4-b]pyridin-5-one-7,7-d2]
164 | 83 | – | 31 | 6240 | [2H]C1([2H])c2ncccc2C(=O)N1Cc1c(C)cc(-c2ccc(OC)c3nn(C([2H])([2H])[2H])cc23)cc1F [Compound 159, 6-(2-fluoro-4-(7-methoxy-2-(methyl-d3)-2H-indazol-4-yl)-6-methylbenzyl)-6,7-dihydro-5H-pyrrolo[3,4-b]pyridin-5-one-7,7-d2]

Source: patent US20240228489A1, “POSITIVE ALLOSTERIC MODULATORS OF THE MUSCARINIC ACETYLCHOLINE RECEPTOR M1” (Vanderbilt University, priority 2021, published 2024)
